The text below walks through data of patent US20230079439A1, “Compositions and Methods for Enhancing Beta Cell Maturation, Health and Function” (THE REGENTS OF THE UNIVERSITY OF CALIFORNIA, priority 2016, published 2023).

Ends that are not written are not given here.

For this assay, the system named is INS-1E cells. Description: Glucose-stimulated insulin secretion (GSIS) in INS-1E cells. The format is cell-based, rat. The protocol: FIG. 3, comprising FIG. 3A through FIG. 3D, depicts the evaluation of the biological activity of HSA-112 in INS-1E cells. FIG. 3A depicts a dose-response analysis of the effect of HSA-112 on the rate of insulin secretion in INS-1E cells. The INS-1E cells were grown and treated with increasing doses of HSA-112 for 24 h, as described in Methods. Subsequently, cells were mixed with different concentrations of HSA-112, as indicated in the graph (red columns), PEG2000 (green columns), and free peptide (blue columns) and were seeded in 12-well plates. After 24 h the cells were taken to a GSIS in the presence of 2.5 mM (weak color bars) or 16.7 mM (strong color bars) glucose. FIG. 3B depicts the time-course analysis of the effect of HSA-112 on the rate of insulin secretion in INS-1E cells. The INS-1E cells were prepared for the experiment as described above with 50 μM of HSA-112, PEG2000, or free peptide. After incubation, as indicated in the graph, the cells were taken to a GSIS as described above. FIG. 3C depicts the cell protective effect of HSA-112 under oxidative stress conditions. Cells were prepared for the experiment as described in Methods. Trolox was used as a positive control at a concentration of 100 μM. The oxidative stress was induced in the tissue culture, as described in Methods. Standard MTT analysis (also described in Methods) was used for evaluating the effect of HSA-112 on cell viability. FIG. 3D depicts INS-1E cell proliferation. Cells were prepared for the experiment as described above. After 24 h the cells were colored by trypan blue and counted as described in Methods *p<0.05, n=6. MEAN±SE.
FIG. 7, comprising FIG. 7A through FIG. 7G, depicts the evaluation of the biological activity of HSA-28P in INS-1E cells. FIG. 7A depicts dose-response analysis of the effect of HSA-28P on the rate of insulin secretion in INS-1E cells. The INS-1E cells were grown and trypsinized as described in Methods. Subsequently, cells were mixed with the indicated concentrations of HSA-28P (red columns), non-relevant peptide nanoparticles (NRPNP, green columns), and naked nanoparticles (NP, blue columns) and were seeded in 12-well plates. After 24 h the cells were taken to a GSIS in the presence of 2.5 mM (weak color bars) or 16.7 mM (strong color bars) glucose. FIG. 7B depicts time-course analysis of the effect of HSA-28P on the rate of insulin secretion in INS-1E cells. The INS-1E cells were prepared for the experiment as described above with 1.34 μM of both HSA-28P or NRPNP, and 0.76 μg/ml of NP. After incubation for the time indicated in the graph, the cells were taken to a GSIS as described in Methods. FIG. 7C depicts the measurement of insulin content. The RIA-assay was performed for INS-1E lysates. FIG. 7D depicts the Effect of HSA-28P on the cells viability under oxidative stress conditions. INS-1E cells were incubated for 24 h with a medium supplemented with HSA-28P (3 μM), or HSA-28P1/2 (1.5 μM), or NPs covered by phantom random peptide (PPNP, 3 μM), or NP (0.76 μg/ml), or HSA-28 (3 μM) and trolox, as a positive antioxidant control (1 mM). After the incubation time, 50 mU/ml of glucose oxidase (GO) was added for an additional 1.15 h. Upon completion of the experiments, a standard MTT assay was conducted as described in Methods. Cell viability is presented as a percentage in comparison to non-treated cells. FIG. 7E depicts the effect of HSA-28P on the cell proliferation rate. Experiments were conducted on INS-1E cells that were seeded in 6-well plates. INS-1E cells were treated as described in Panel D. Cells were detached by trypsin and counted as described in Methods and then were visualized with a Cells Sense Live Imaging microscope. FIG. 7F depicts light microscope images of untreated cells. FIG. 7G depicts light microscope images of cells that were treated with HSA-28P. *p<0.05, n=3. MEAN±SE. […]

Consider “HSA-112: HSA-28 dimer formed by bridging two HSA-28 monomers via amide bond formation with active ester PEG2,000 (QQGEFLNYD-NH2; not fully specified (N-terminus); also: dimer of two HSA-28 monomers bridged via amide bonds with active ester PEG2000)”, for which, for the setting “50 μM”, the “duration of the increase in insulin secretion” value was 24 h, the “time after which a significant increase in insulin secretion was induced” value was found to be 6 h and the “time of maximal stimulatory effect” value is recorded as 18 h. For the same substance, the “maximal stimulatory effect on GSIS parameters” value (50 μM, after 18 h) was “twofold elevation of GSIS parameters”. Besides, the “effect on GSIS” value (INS-1E cells, 2.5 mM or 16.7 mM glucose) is recorded as “dose-dependently increased GSIS”.
